# System: DBA/2 mice
# Experiment: DBA2 mouse model of anticonvulsant efficacy (sound-induced seizures)
# Type: in vivo, mouse (male DBA/2)
# Details: first value of the column; time not printed
# Procedure: DBA2 Mouse Model of Anticonvulsant Efficacy
# All procedures were carried out in compliance with the NIH Guide for the Care and Use of Laboratory Animals under a protocol approved by the Parke-Davis Animal Use Committee. Male DBA/2 mice, 3 to 4 weeks old were obtained from Jackson Laboratories Bar Harbour, Me. Immediately before anticonvulsant testing, mice were placed upon a wire mesh, 4 inches square, suspended from a steel rod. The square was slowly inverted through 180° and mice observed for 30 seconds. Any mouse falling from the wire mesh was scored as ataxic (Coughenour L. L., McLean J. R., Parker R. B., "A new device for the rapid measurement of impaired motor function in mice," Pharm. Biochem. Behav., 1977;6(3):351-3). Mice were placed into an enclosed acrylic plastic chamber (21 cm height, approximately 30 cm diameter) with a high-frequency speaker (4 cm diameter) in the center of the top lid. An audio signal generator (Protek model B-810) was used to produce a continuous sinusoidal tone that was swept linearly in frequency between 8 kHz and 16 kHz once each 10 msec. The average sound pressure level (SPL) during stimulation was approximately 100 dB at the floor of the chamber. Mice were placed within the chamber and allowed to acclimatize for one minute. DBA/2 mice in the vehicle-treated group responded to the sound stimulus (applied until tonic extension occurred, or for a maximum of 60 sec) with a characteristic seizure sequence consisting of wild running followed by clonic seizures, and later by tonic extension, and finally by respiratory arrest and death in 80% or more of the mice. In vehicle-treated mice, the entire sequence of seizures to respiratory arrest lasts approximately 15 to 20 seconds. The incidence of all the seizure phases in the drug-treated and vehicle-treated mice was recorded, and the occurrence of tonic seizures were used for calculating anticonvulsant ED50 values by probit analysis (Litchfield J. T., Wilcoxon F. "A simplified method for evaluating dose-effect experiments," J. Pharmacol., 1949;96:99-113). Mice were used only once for testing at each dose point. Groups of DBA/2 mice (n=5-10 per dose) were tested for sound-induced seizure responses 2 hours (previously determined time of peak effect) after given drug orally. All drugs in the present study were dissolved in distilled water and given by oral gavage in a volume of 10 mL/kg of body weight. Compounds that are insoluble will be suspended in 1% carboxymethocellulose. Doses are expressed as weight of the active drug moiety.
row,Compound,DBA 2 % Protect (time)
1,NCC1(CC(=O)O)CCCCC1 [reference compound],100%
2,CC(C)C[C@H]1CNC[C@@H]1C(=O)O,20%
3,Cl.O=C(O)[C@H]1CNCC12CCCCC2 [(R)-2-Aza-spiro[4.5]decane-4-carboxylic acid hydrochloride],20%
4,CC(C)C[C@H]1CNC[C@@H]1C(=O)O (stereo in doubt),0%
5,CC(C)C[C@H](CN)CC(=O)O [reference compound],100%
6,CC(C)C[C@@H]1CNC[C@@H]1C(=O)O (stereo in doubt),0%

# Same assay, conditions: second value of the column; time not printed
row,Compound,DBA 2 % Protect (time)
1,CC(C)C[C@H]1CNC[C@@H]1C(=O)O,40%
2,Cl.O=C(O)[C@H]1CNCC12CCCCC2 [(R)-2-Aza-spiro[4.5]decane-4-carboxylic acid hydrochloride],20%
3,CC(C)C[C@H]1CNC[C@@H]1C(=O)O (stereo in doubt),0%
4,CC(C)C[C@H](CN)CC(=O)O [reference compound],100%
5,CC(C)C[C@@H]1CNC[C@@H]1C(=O)O (stereo in doubt),0%

# System: Sys L
# Experiment: Sys L
# Details: Table I
row,Compound,IC50
1,NCC1(CC(=O)O)CCCCC1 [reference compound],25 µM
2,Cl.O=C(O)[C@H]1CNCC12CCCCC2 [(R)-2-Aza-spiro[4.5]decane-4-carboxylic acid hydrochloride],> 10000 µM
3,CC(C)C[C@H](CN)CC(=O)O [reference compound],193 µM

# Biological target: T1, α2δ subunit of a calcium channel (Sus scrofa, UniProt A0A287BIN3)
# T1 construct: α2δ subunit derived from porcine brain tissue; from tissue; host or cells: porcine brain tissue
# T1 sequence (A0A287BIN3 entry or part of it): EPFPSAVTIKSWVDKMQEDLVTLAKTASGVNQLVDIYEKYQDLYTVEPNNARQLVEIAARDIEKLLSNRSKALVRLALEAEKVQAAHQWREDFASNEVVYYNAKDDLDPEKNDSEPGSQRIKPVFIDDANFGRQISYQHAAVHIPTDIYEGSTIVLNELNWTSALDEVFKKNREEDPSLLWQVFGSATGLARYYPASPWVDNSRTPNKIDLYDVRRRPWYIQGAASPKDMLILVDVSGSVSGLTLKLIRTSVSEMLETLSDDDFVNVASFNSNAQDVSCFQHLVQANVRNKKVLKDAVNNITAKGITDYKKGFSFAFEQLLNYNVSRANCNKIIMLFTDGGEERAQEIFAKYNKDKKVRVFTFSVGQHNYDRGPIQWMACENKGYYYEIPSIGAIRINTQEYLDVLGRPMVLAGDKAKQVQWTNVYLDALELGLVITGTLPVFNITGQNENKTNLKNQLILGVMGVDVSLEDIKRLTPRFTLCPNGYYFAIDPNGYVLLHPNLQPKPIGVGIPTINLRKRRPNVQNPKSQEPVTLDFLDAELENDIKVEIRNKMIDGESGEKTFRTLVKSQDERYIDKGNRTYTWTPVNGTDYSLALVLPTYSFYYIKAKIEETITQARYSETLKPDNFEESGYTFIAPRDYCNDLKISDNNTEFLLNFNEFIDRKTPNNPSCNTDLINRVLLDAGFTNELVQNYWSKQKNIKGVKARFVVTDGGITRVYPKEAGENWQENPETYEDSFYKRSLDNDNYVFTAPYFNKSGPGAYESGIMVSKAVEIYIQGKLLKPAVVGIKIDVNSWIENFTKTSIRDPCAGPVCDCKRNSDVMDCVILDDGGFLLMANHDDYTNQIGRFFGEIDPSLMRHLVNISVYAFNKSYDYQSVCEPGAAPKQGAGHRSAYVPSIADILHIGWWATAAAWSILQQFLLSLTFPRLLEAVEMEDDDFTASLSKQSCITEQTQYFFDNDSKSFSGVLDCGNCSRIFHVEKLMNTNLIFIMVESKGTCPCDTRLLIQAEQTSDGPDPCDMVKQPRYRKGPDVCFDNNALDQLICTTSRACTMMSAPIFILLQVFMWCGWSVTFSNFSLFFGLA
# Experiment: [3H]gabapentin (GAP) radioligand binding assay, α2δ subunit
# Set-up: species or system porcine (brain tissue)
# Details: not given
row,Compound,IC50
1,CC(C)[C@H]1CNC[C@@H]1C(=O)O (relative stereo),0.543 µM
2,"CC(C)C[C@H]1CNC[C@H]1C(=O)O (stereo in doubt) [Example 1, (cis)-4-Isobutyl-pyrrolidine-3-carboxylic acid]",0.135 µM
3,Cl.O=C(O)[C@H]1CNCC12CCCCC2 [(R)-2-Aza-spiro[4.5]decane-4-carboxylic acid hydrochloride],0.12 µM
4,CCCC[C@H]1CNC[C@@H]1C(=O)O (relative stereo),0.064 µM
5,CC1(C)CNCC1C(=O)O (racemic),1.19 µM
6,CCC[C@H]1CNC[C@@H]1C(=O)O (relative stereo),0.03 µM
7,C[C@H]1CNC[C@@H]1C(=O)O (relative stereo),3.1 µM
8,CC(C)C[C@H](CN)CC(=O)O [reference compound],0.087 µM
9,CC(C)C[C@@H]1CNC[C@@H]1C(=O)O (stereo in doubt),0.7 µM

# System: carrageenin-induced hyperalgesia
# Experiment: CITH / carrageenin-induced hyperalgesia
# Type: in vivo, rat (male Sprague-Dawley)
# Details: 30 mg/kg orally, 1 hour postdose
# Procedure: Carrageenin-Induced Hyperalgesia
# Nociceptive pressure thresholds were measured in the rat paw pressure test using an analgesymeter (Randall-Selitto method: Randall L. O. and Selitto J. J., "A method for measurement of analgesic activity on inflamed tissue," Arch. Int. Pharmacodyn., 1957;4:409-419). Male Sprague-Dawley rats (70-90 g) were trained on this apparatus before the test day. Pressure was gradually applied to the hind paw of each rat and nociceptive thresholds were determined as the pressure (g) required to elicit paw withdrawal. A cutoff point of 250 g was used to prevent any tissue damage to the paw. On the test day, two to three baseline measurements were taken before animals were administered 100 μL of 2% carrageenin by intraplantar injection into the right hind paw. […] Animals were dosed with either gabapentin ([…].), morphine (3 mg/kg, s.c.) or saline at 3.5 hours after carageenin and nociceptive thresholds were examined at 4, 4.5, and 5 hours postcarrageenin.
# (R)-2-Aza-spiro[4.5]decane-4-carboxylic acid hydrochloride was tested in the above carrageenan-induced hyperalgesia model. The compound was dosed orally at 30 mg/kg, and 1 hour postdose gave a percent of maximum possible effect (MPE) of 53%. At 2 hours postdose, it gave only 4.6% of MPE.
row,Compound,percent of maximum possible effect (MPE)
1,Cl.O=C(O)[C@H]1CNCC12CCCCC2 [(R)-2-Aza-spiro[4.5]decane-4-carboxylic acid hydrochloride],53%

# Same assay, conditions: 30 mg/kg orally, 2 hours postdose
row,Compound,percent of maximum possible effect (MPE)
1,Cl.O=C(O)[C@H]1CNCC12CCCCC2 [(R)-2-Aza-spiro[4.5]decane-4-carboxylic acid hydrochloride],4.6%

# Same assay, conditions: 1 h; Table I
row,Compound,CITH % MPE 1 h
1,NCC1(CC(=O)O)CCCCC1 [reference compound],48.9 % MPE
2,Cl.O=C(O)[C@H]1CNCC12CCCCC2 [(R)-2-Aza-spiro[4.5]decane-4-carboxylic acid hydrochloride],53 % MPE
3,CC(C)C[C@H]1CNC[C@@H]1C(=O)O (stereo in doubt),3 % MPE
4,CC(C)C[C@H](CN)CC(=O)O [reference compound],52.5 % MPE
5,CC(C)C[C@@H]1CNC[C@@H]1C(=O)O (stereo in doubt),23 % MPE

# Same assay, conditions: 2 h; Table I
row,Compound,CITH % MPE 2 h
1,NCC1(CC(=O)O)CCCCC1 [reference compound],19.9 % MPE
2,Cl.O=C(O)[C@H]1CNCC12CCCCC2 [(R)-2-Aza-spiro[4.5]decane-4-carboxylic acid hydrochloride],4.6 % MPE
3,CC(C)C[C@H]1CNC[C@@H]1C(=O)O (stereo in doubt),-15 % MPE
4,CC(C)C[C@H](CN)CC(=O)O [reference compound],50.1 % MPE
5,CC(C)C[C@@H]1CNC[C@@H]1C(=O)O (stereo in doubt),3.3 % MPE

# System: Vogel
# Experiment: Vogel
# Type: in vivo
# Details: relative to C1-1008
row,Compound,Vogel % of C1-1008
1,NCC1(CC(=O)O)CCCCC1 [reference compound],63.7 % of C1-1008
2,CC(C)C[C@H]1CNC[C@@H]1C(=O)O,0.63 % of C1-1008
3,CC(C)C[C@H](CN)CC(=O)O [reference compound],100 % of C1-1008
4,CC(C)C[C@@H]1CNC[C@H]1C(=O)O,-0.63 % of C1-1008

# System: NA Release
# Experiment: NA Release, % inhibition
# Details: @ 100 μM
row,Compound,NA Release % Inhibition
1,CC(C)C[C@H]1CNC[C@@H]1C(=O)O,16%
2,CC(C)C[C@@H]1CNC[C@H]1C(=O)O,8%
